The values below come from patent US7250304B2, “Functional assay of high-density lipoprotein” (The Regents of the University of California, priority 2000, dated 2007).

Read-outs that look alike come from different tables or passages of the source.

The test system of experiment [1] is human artery wall cell cocultures. Put plainly: Monocyte chemotaxis assay on coculture conditioned medium. The class given is cell-based. Here is the method:
The wells of the microtiter plates were treated with 0.1% gelatin at 37° C. overnight. HASMC were added at a confluent density of 1×10^5 cells/cm^2. Cells were cultured for 2 d at which time they had covered the entire surface of the well and had produced a substantial amount of extracellular matrix. HAEC were subsequently added at 2×10^5 cells/cm^2 and were allowed to grow forming a complete monolayer of confluent HAEC in 2 d. In all experiments, HAEC and autologous HASMC (from the same donor) were used at passage levels of four to six.
Monocytes were isolated using a modification of the Recalde method as previously described (Fogelman et al. (1988) J. Lipid Res. 29: 1243-1247) from the blood of normal volunteers after obtaining written consent under a protocol approved by the human research subject protection committee of the University of California, Los Angeles.
In general, the cocultures were treated with native LDL (250 μg/ml) in the absence or presence of HDL for 8 h. The supernatants were collected and used for determination of lipid hydroperoxide levels. The cocultures were subsequently washed and fresh culture medium 199 (M199) without any additions was added and incubated for an additional 8 hrs. This allowed the collection of monocyte chemotactic activity released by the cells as a result of stimulation by the oxidized LDL. At the end of incubation, the supernatants were collected from cocultures, diluted 40-fold, and assayed for monocyte chemotactic activity. Briefly, the supernatant was added to a standard Neuroprobe chamber (NeuroProbe, Cabin John, Md.), with monocytes added to the top. The chamber was incubated for 60 min at 37° C. After the incubation, the chamber was disassembled and the nonmigrated monocytes were wiped off. The membrane was then air dried and fixed with 1% glutaraldehyde and stained with 0.1% Crystal Violet dye. The number of migrated monocytes was determined microscopically and expressed as the mean±SD of 12 standardized high power fields counted in quadruple wells.

In experiment [2] the test system is HAEC monolayers. Put plainly: Monocyte adhesion assay. The class given is cell-based, human. Conditions: LDL 1 mg/ml incubated with apo A-I 100 μg/ml 2 hrs, re-isolated. Here is the method: In brief, HAEC monolayers, in 48-well tissue culture plates were incubated with the desired LDL or phospholipid for 4 hrs at 37° C. as described (Watson et al. (1995) J. Clin. Invest. 96: 2882-2891). After washing, a suspension of human peripheral blood monocytes was added and incubated for 10 min. The loosely adherent monocytes were then washed away, the monolayers were fixed and the number of adherent monocytes counted in 9 high power microscopic fields.
Freshly isolated LDL (250 μg) was incubated with pure 13(S)-HPODE (1.0 μg) in 10% LPDS in M 199 for 4 hrs at 37° C. with gentle mixing. LDL was re-isolated by centrifugation and was incubated with monolayers of human aortic endothelial cells. […] The endothelial monolayer was washed after each time point and a monocyte suspension was added, incubated, washed, and the number of adherent monocytes determined.
Freshly isolated LDL (250 μg) was incubated with 10 units of pure soybean lipoxygenase bound to sepharose beads for 4 hrs at 37° C. with gentle mixing. […] The endothelial monolayer was washed after each time point and monocyte adhesion determined.
Blood samples were collected from patients referred to the cardiac catheterization laboratory at The Center for Health Sciences at the University of California, Los Angeles. […] The HDL-Ox-PAPC mixture was then added to endothelial monolayers and monocyte binding was determined.

The test system of experiment [3] is humans. Put plainly: Infusion of apo A-I into humans, LDL isolated and tested on human artery wall cocultures. The class given is in vivo.
Experiment [4] has as its system paraoxonase. Conditions: mice, six hours after injection.
Experiment [5] deals with paraoxonase. The following applies: humans, six hours after the infusion vs two hours before.
Experimental: After obtaining written informed consent and with IRB approval from St Bartholomew's and the Royal London School of Medicine and Dentistry, apo A-I/phosphotidylcholine discs were infused at a dose of 40 mg apo A-I /kg of body weight over four hours using the materials and protocol described by Nanjee et al (Nanjee et al. (1999) Arterioscler. Thromb. Vascul. Biol. 19: 979-989; Nanjee et al. (1996) Arteroscler. Thromb. Vascul. Biol. 16: 1203-1214) into six healthy male subjects. […] Plasma was prepared 2 hrs before and 6 hrs following the infusion, was cryopreserved as described (Havel et al. (1955) J. Clin. Invest. 43: 1345-1353) and LDL was isolated by FPLC in the authors' lab in Los Angeles before the experiments. LDL islated from plasma according to this protocol functions in a manner that is indistinguishable from freshly isolated LDL in vitro and in vivo (Rumsey et al. (1994) J. Lipid Res. 35: 1592-1598).
Paraoxonase (PON) activity was measured as previously described (Gan et al. (1991) Drug Metab. Dispos. 19: 100-106). Statistical significance was determined by model 1 ANOVA. […] Significance is defined as p<0.05.

On to “apo A-I: Human apo A-I from Sigma, major apolipoprotein of HDL; infused into humans as apo A-I/phosphatidylcholine discs”, for which, in experiment [1] (cocultures incubated 8 hrs with agent, agent removed before LDL), the “LDL-induced monocyte chemotaxis in pretreated cocultures” value was “monocyte chemotaxis was prevented”. Besides, the “LDL-induced monocyte chemotactic activity of LDL pre-incubated with the agent” value in experiment [1] (human LDL incubated with agent, re-isolated, then cocultures) is listed as “prevented LDL-induced monocyte chemotaxis”. The “monocyte adherence induced by LDL after A-I” value in experiment [2] is reported as “did not stimulate monocyte adherence”. In experiment [3] (apo A-I/phosphatidylcholine discs 40 mg apo A-I/kg over 4 hrs, six hours after vs two hours before, six out of six subjects), the “resistance of human LDL to oxidation by artery wall cells after infusion” value is given as “much more resistant to oxidation”. The “time after infusion at which LDL was rendered resistant to oxidation” value in experiment [3] (humans) is not above 6 h. The “PON activity in plasma and HDL, increase” value in experiment [4] and in experiment [5] was “approximately 20%” each time.
